Measurements published in patent publication US20220274980A1, “PHARMACOLOGICAL INHIBITORS OF THE ENL YEATS DOMAIN” (priority 2019, published 2022).
Like-named read-outs stand apart in the source and are kept apart here.

Key:
[1] = target: T1, ENL YEATS domain (association with H3K27cr) (Homo sapiens, UniProt Q03111); test: biochemical; settings: ENL (YEATS)-H3K27cr HTRF (IC50, μM)
T1 sequence (Q03111 1-148): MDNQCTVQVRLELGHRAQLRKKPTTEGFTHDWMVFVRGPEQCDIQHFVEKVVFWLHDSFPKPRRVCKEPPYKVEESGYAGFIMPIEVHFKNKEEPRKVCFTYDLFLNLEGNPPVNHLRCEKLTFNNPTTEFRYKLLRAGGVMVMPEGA
Experimental: (§1) Protein Production. Double stranded DNA fragments encoding the protein sequence of ENL YEATS(1-148) were synthesized (IDT DNA) for assembly-based cloning into a modified expression vector backbone derived from pET21a (Novagen). The protein was fused to a StrepII-SUMO and 6×His tag on the amino and carboxy terminus, respectively. Transformed BL21(DE3) cells (New England Biolabs) were grown at 37° C. in 2×YT growth medium to an OD600 of 0.6. Protein expression was induced at 25° C. with the addition of isopropyl-β-D-thiogalactopyranoside (IPTG) to a final concentration of 0.4 mM. The culture was harvested by centrifugation following a 20-hour incubation and subsequently purified by immobilized metal affinity chromatography. Cells were resuspended 50 mM Tris-HCl pH 8.0, 300 mM NaCl, 10% glycerol, 10 mM imidazole, 1 mM DTT containing Complete EDTA-free protease inhibitor (Roche) and lysed by two passes through a MicroFluidizer at 10,000 psi. The lysate was clarified by centrifugation at 16,000 rpm for 30 minutes at 4° C. The supernatant was passed over NiNTA agarose (QIAGEN) and the protein was eluted in 50 mM Tris-HCl pH 8.0, 300 mM NaCl, 10% glycerol, 250 mM imidazole, 1 mM DTT. Fractions containing the ENL YEATS(1-148) fusion protein were buffer exchanged into 100 mM Tris-HCl pH 8.0, 150 mM NaCl, 1 mM EDTA, 1 mM DTT using PD10 desalting columns (GE Life Sciences). Ulp1 protease was added to cleave the StrepII-SUMO fusion and the reaction mixture was incubated overnight at 4° C. The cleavage reaction mixture was loaded onto a StrepTrap column (GE Life Sciences) and ENL YEATS(1-148) was recovered in the flow through. BRD4 BD1 was purchased from Cayman (Cat. No. 11720).
(§2) Homogenous time-resolved FRET (HTRF) histone-binding assays. Both HTRF assays were performed by combining recombinant protein and synthetic histone peptide in assay buffer (25 mM HEPES pH 7, 20 mM NaCl, 0.2% Pluronic F-127, and 0.05% BSA) with 1 nM LanthaScreen Eu-anti-His Tag antibody (ThermoFisher, Cat. No, PV5597) and 8.9 nM SureLight allophycocyanin-streptavidin (Perkin Elmer, APC-SA, Cat. No. CR130-100). ENL YEATS was used at 5 nM and BRD4 BD1 was used at 10 nM. ENL assays were performed with H3(13-32)K27cr (13.3 and 100 nM, respectively), custom synthesized at ABclonal (N-terminal biotin, C-terminal amide); BRD4 BD1 assay was performed with 13.3 nM tetra-acetylated H4 (BioVision, Cat. No. 7144-01). Once all reagents were combined (with or without peptide), 10 μL was dispensed per well into black 384-well low-volume plates (Corning, Cat. No. 3821) and drug was added by pin tool transfer (Biomek FX). Assays were incubated for 2 or more hours before measurement of HTRF signal on a PHERAstar plate reader (BMG Labtech; simultaneous dual emission; excitation=337 nm, emission 1=665 nm, emission 2=620 nm). HTRF signal (ratio of emission 1 to emission 2) from vehicle-treated wells (maximum signal) and no-peptide-control wells (minimum signal) were used to calculate percent inhibition for drug-treated wells.

[2] = Half-life in mouse liver microsomes; format: in vitro ADME
ENL(YEATS)-HiBiT [3] = target: T2, ENL(YEATS)-HiBiT (Homo sapiens, UniProt Q03111); test: cell-based
T2 sequence (Q03111 1-138 limits assumed): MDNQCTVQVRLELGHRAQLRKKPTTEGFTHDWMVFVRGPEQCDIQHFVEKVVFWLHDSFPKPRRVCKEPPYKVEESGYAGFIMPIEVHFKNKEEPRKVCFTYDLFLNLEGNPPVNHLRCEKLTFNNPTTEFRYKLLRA
Experimental: (§3) Cellular thermal shift assay (CETSA). […] Cells were transferred to 384-well (20,000 cells per well in 20 μL) or 1,536-well (3,000 cells per well in 4 μL) plates and drug was transferred using a 100 nL pin tool for 384-well plates or acoustic transfer (Labcyte, Echo Liquid Handler) for 1,536-well plates. Luminescent detection of HiBiT was performed by combining an equal volume of Nano-Glo HiBiT Lytic Reagent (Promega, HiBiT Lytic Detection System, Cat. No. N3040) in each well. […] Briefly, cells were treated with drug, washed with PBS, heated to various temperatures in a thermocycler, cooled to room temperature, lysed by three rounds of freeze-thaw, and then clarified lystaes were subjected to immunoblot analysis.

ENL(YEATS)-HiBiT [4] = target: T2, ENL(YEATS)-HiBiT; settings: read-out: ENL YEATS CETSA (IC50); Table 2; OCI/AML-2 cells expressing ENL(YEATS)-HiBiT
Experimental: as §3

BRD4 bromodomain 1 (BD1) = target: T3, BRD4 bromodomain 1 (BD1) (Homo sapiens, UniProt O60885); test: BRD4 (BD1)-H4 tetra-acetylated HTRF histone-binding assay
T3 construct: Selectivity against BRD4 bromodomain 1 (BD1), measured by HTRF; His; purchased Cayman 11720
Experimental: as §1, §2

[5] = read-out: t1/2 (min) mouse liver microsomes
[6] = without NADPH, read-out: t1/2 mouse (min liver microsomes (without NADPH))

| Structure (SMILES) | IC50 ([1]; Table 1) [µM] | IC50 ([1]; Table 2) [µM] | half-life [2, 5] [min] | IC50 (ENL(YEATS)-HiBiT [3]) [µM] | IC50 (ENL(YEATS)-HiBiT [4]) [µM] | IC50 (BRD4 bromodomain 1 (BD1); Table 1) [µM] | IC50 (BRD4 bromodomain 1 (BD1); Table 2) [µM] | half-life [2, 6] [min] |
| --- | --- | --- | --- | --- | --- | --- | --- | --- |
| O=C(NC1CCC1)c1ccc2nc(-c3cccc(NS(=O)(=O)CCN4CCCCC4)c3)cn2c1 [Compound 106] | 0.027 | 0.027 | 7.83 | 1.24 |  |  |  |  |
| CC(C)NC(=O)c1ccc2nc(-c3cccc(C(F)(F)F)c3)cn2c1 [Compound 21] | 15 | 15 |  | > 100 | > 100 | > 50 | > 50 |  |
| CC1(C)CCN(CCNS(=O)(=O)Nc2cccc(-c3cn4cc(C(=O)NC5CCC5)ccc4n3)c2)CC1 [Compound 101] | 0.062 | 0.062 | 2.29 | 0.297 |  |  |  | 405 |
| CC(C)NC(=O)c1ccc2nc(-c3ccccc3OC(F)(F)F)cn2c1 [Compound 12] | > 50 | > 50 |  | > 100 | > 100 | > 50 | > 50 |  |
| Cc1ccc(-c2cn3cc(C(=O)NC(C)C)ccc3n2)cc1C [Compound 25] | > 50 | > 50 |  | > 100 | > 100 | > 50 | > 50 |  |
| O=C(CCCCN1CCCCC1)Nc1cccc(-c2cn3cc(C(=O)NC4CCC4)ccc3n2)c1 [Compound 103] | 0.696 | 0.696 | 13.1 | 2.2 |  |  |  | 16.1 |
| O=C(NC1CC(F)(F)C1)c1ccc2nc(-c3ccccc3)cn2c1 [Compound 75] | > 50 | > 50 |  | > 50 | > 50 |  |  |  |
| CC1(NC(=O)c2ccc3nc(-c4ccccc4)cn3c2)CCC1 [Compound 73] | > 50 | > 50 |  | > 50 | > 50 |  |  |  |
| O=C(NC1Cc2ccccc21)c1ccc2nc(-c3ccccc3)cn2c1 (centres unmarked) [Compound 80] | 3.03 | 3.03 |  | > 50 | > 50 |  |  |  |
| CC(C)NC(=O)c1ccc2nc(-c3ccc(C(F)(F)F)cc3)cn2c1 [Compound 7] | > 50 | > 50 |  | > 100 | > 100 | > 50 | > 50 |  |
| N#CC1(NC(=O)c2ccc3nc(-c4ccccc4)cn3c2)CCC1 [Compound 82] | > 50 | > 50 |  | > 50 | > 50 |  |  |  |
| O=C(N[C@H]1CCc2ccccc21)c1ccc2nc(-c3ccccc3)cn2c1 [Compound 79] | > 50 | > 50 |  | > 50 | > 50 |  |  |  |
| CC(C)NC(=O)c1ccc2nc(-c3cccc(OC(F)(F)F)c3)cn2c1 [Compound 3] | 3.5 | 3.5 |  | > 100 | > 100 | > 50 | > 50 |  |
| O=C(NC1(CO)CCC1)c1ccc2nc(-c3ccccc3)cn2c1 [Compound 72] | > 50 | > 50 |  | > 50 | > 50 |  |  |  |
| CCC(CC)NC(=O)c1ccc2nc(-c3ccccc3)cn2c1 [Compound 13] | > 50 | > 50 |  | > 100 | > 100 | > 50 | > 50 |  |
| O=C(NC1CCC(O)CC1)c1ccc2nc(-c3ccccc3)cn2c1 (centres unmarked) [Compound 2] | > 50 | > 50 |  | > 100 | > 100 | > 50 | > 50 |  |
